Test results taken from patent US11124479B2, “Oligopyrroles as antagonists of islet amyloid polypeptide oligomerization” (New York University, priority 2017, dated 2021).

Columns and labels:
[1] = molecular target: T1, islet amyloid polypeptide (IAPP) (Homo sapiens, UniProt P10997); test: Transmission electron microscopy (TEM) of IAPP fibers; conditions: 10 μM IAPP, equimolar ratio
T1 construct: IAPP is a 37 residue neuropancreatic hormone peptide; purchased Anaspec (Fremont, Calif.)
T1 sequence (P10997 34-70 limits assumed): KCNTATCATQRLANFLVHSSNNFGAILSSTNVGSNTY
Protocol: […] Aliquots of these samples were then applied to glow-discharged carbon-coated 300-mesh copper grids for 2 min and dried. Grids were negatively stained with uranyl acetate (2%, w/v) and dried. Micrographs of grids were examined on a Phillips CM12 Cryoelectron Microscope equipped with Gatan 4 k×2.7 k CCD camera at 120-kV accelerating voltage.

Aβ42 = molecular target: T2, Aβ42 (Homo sapiens, UniProt P05067); test: ThT kinetic assay of Aβ42 fibrillation (specificity assay); format: biochemical
T2 construct: purchased
Protocol: Kinetic assays were conducted on a FlexStation 3 Multi-Mode Microplate reader from Molecular Devices (Sunnyvale, Calif.). Experiments were conducted in triplicate in a 96-well plate with a final volume of 200 μL per well. Every measurement was an average of 50 readings. The aggregation of IAPP was initiated by its addition from a stock solution (1 mM in DMSO) to phosphate buffer. The stoichiometry ratio for ThT to IAPP was 0.5:1. Peptide aggregation was monitored by ThT fluorescence (λex=445 nm and λem=485 nm). The blank sample contained all the components of the peptide samples except peptide. The sample data were processed by subtracting the blank and renormalizing the fluorescence intensity by setting the maximum value to 1.
Kinetic assays in the presence of the compounds of the invention were conducted under the same conditions. Small molecules were added from a stock solution (1 mM or 10 mM in DMSO) to keep the final concentration of DMSO less than 1.0% (v/v). Small molecules were added to the wells with ThT and buffer and mixed gently with a pipette before adding IAPP. To keep the conditions identical, an equal amount of DMSO was added to the wells with IAPP only reactions. For the aggregation kinetics of Aβ42, the peptide was dissolved in 1N NaOH (0.5-1 mM) and vortexed for 2 min. to ensure the complete solubility. The aggregation of 3 μM Aβ42 was initiated by addition of peptide from a stock solution (in 1 N NaOH, 0.5-1 mM) to phosphate buffer.
Kinetic profiles were processed using Origin (version 9.1). Kinetic curves were fit using the built-in sigmoidal fit. Each run was fit independently to extract the t50 (time required to reach 50% of the maximum fluorescence intensity). Error bars represent standard deviations from the mean of at least three independent experiments.
To test the specificity of ADH-101 towards IAPP, the binding interaction of ADH-101 with Aβ peptide was investigated. […]

[2] = molecular target: T1, islet amyloid polypeptide (IAPP); test: Seed-catalyzed ThT kinetic assay of IAPP aggregation; format: biochemical; conditions: 15 μM IAPP; for relative t50 of seed catalyzed fibrillation: seed 5% v/v, lipid membrane DOPG:DOPC 3:7 750 μM; for factor of retardation of seed catalyzed aggregation kinetics: seed 10% v/v
Protocol: Seeds of IAPP were prepared by incubating 100 μM of IAPP in phosphate buffer at room temperature and aged for 24 hours. The formation of fibers was confirmed by TEM and ThT stain before storage at −20° C. until use. For the seed catalyzed aggregation kinetics of IAPP, 10% (based on the monomeric IAPP, v/v) seeds were added with ThT in phosphate buffer to the 96-well plate. The aggregation was initiated by the addition of fresh IAPP followed by gentle mixing. Kinetic assays in the presence of the compounds of the invention were conducted under the same conditions except that the compounds were added from a stock solution (1 mM or 10 mM in DMSO) to keep the final concentration of DMSO less than 1.0% (v/v).
The effect of ADH-101 on preformed IAPP oligomers has been investigated. ADH-101 was added during the lag phase of IAPP amyloid kinetics at 1 h and 3 h at an equimolar ratio (IAPP:ADH-101, 1:1, 10 μM IAPP). […] Additionally, ADH-101 has no effect on IAPP amyloid fibers. No change in ThT fluorescence intensity was observed when ADH-101 added to the fibers (FIG. 4, black arrow). […] The kinetics of IAPP fibrillation is dominated by the secondary nucleation which is reflected in the disappearance of the lag phase (FIG. 13). The t50 for the seed catalyzed (5%, v/v) aggregation kinetics of 15 μM IAPP (lipid membrane, DOPG:DOPC, 3:7, 750 μM) is 0.55±0.13 h which is […] faster than the de novo conditions (t50=1.55±0.20 h, FIGS. 13A and 13B). ADH-101 delays the seed catalyzed fibrillation by a relative t50 that is 1.8 fold and 2.6 fold at stoichiometric ratios of 1:1 and 2:1 (ADH-101:IAPP), respectively (FIGS. 13A and 13B). The t50 for the seed catalyzed (10%, v/v) aggregation of 15 μM IAPP is 0.86±0.19 h, which is ˜10 fold faster than the de novo conditions (t50=8.7±0.8 h, FIGS. 13C and 13D). ADH-101 retards the seed catalyzed aggregation kinetics of IAPP by factors of 1.4, 5.4, and 7.1 at stoichiometric ratios of 1:0.1, 1:0.5, and 1:1 (IAPP:ADH-101), respectively (FIGS. 13C and 13D). It is postulated that ADH-101 modulates IAPP conformation and attenuates its ability for oligomerization and fibrillation.

T2 sequence (P05067 672-713 limits assumed): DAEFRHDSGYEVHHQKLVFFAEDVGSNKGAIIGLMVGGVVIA

CCOC(=O)c1cc(NC(=O)c2cc(NC(=O)c3cc([N+](=O)[O-])cn3CC(C)C)cn2CC(C)C)cn1CCC(=O)O [ADH-101]
fiber formation by TEM ([1]; 12 hours): no formation of fibers
fiber formation by TEM ([1]; 24 h): formation of amorphous fibers
effect on Aβ42 fibrillation (in words) (Aβ42): weak agonist
relative t50 for Aβ42 amyloid fiber formation (Aβ42; 3 μM Aβ42, equimolar ratio): 0.8 fold
t50 for the amyloid kinetics of Aβ42 in the presence of compound (Aβ42; 3 μM Aβ42, equimolar ratio, Aβ42 alone 4.22±0.51 h): 3.41 ± 0.32 h
relative t50 of seed catalyzed fibrillation ([2]; ratio 1:1 (ADH-101:IAPP)): 1.8 fold
relative t50 of seed catalyzed fibrillation ([2]; ratio 2:1 (ADH-101:IAPP)): 2.6 fold
factor of retardation of seed catalyzed aggregation kinetics ([2]; ratio 1:0.1 (IAPP:ADH-101)): 1.4
factor of retardation of seed catalyzed aggregation kinetics ([2]; ratio 1:0.5 (IAPP:ADH-101)): 5.4
factor of retardation of seed catalyzed aggregation kinetics ([2]; ratio 1:1 (IAPP:ADH-101)): 7.1
